These results are taken from US7718651B2, “Inhibitors of FtsZ and uses thereof” (priority 2002, dated 2010).

Structures are written as SMILES.

One test deals with M. tuberculosis H37Rv. Briefly: microbe, parasite or virus in culture. Type of test: cell-based.
Settings: not given
Turning to `CCOC(=O)Nc1cc(NCCCCc2ccccc2)c(N)c(N)n1` [Compound A93], the “% Inh” value stood at 60%.

On to `CCOC(=O)Nc1cc2c(c(N)n1)N=C(c1ccccc1)[C@@H](C)N2` [Compound A98], for which the “% Inh” value was 57%. The same measure, in the same setting: as for `CCOC(=O)Nc1cc2c(c(N)n1)N=C(c1ccccc1)[C@H](C)N2` [Compound A108], the figure is 45%.

Staying with this test, now noted: M. tuberculosis H37Rv, screen concentration 12.5 g/ml [sic], Table 8.
Regarding `CCOC(=O)Nc1cc2[nH]c(-c3ccccc3)nc2c(N(C)Cc2ccccc2)n1` [Compound A3], the “% Inh” value came to 99%. `CCOC(=O)Nc1cc2[nH]c(-c3ccc(Cl)cc3)nc2c(N(CCc2ccccc2)Cc2ccccc2)n1` [Compound A4]: the “% Inh” value was 99%. Take `CCOC(=O)Nc1cc2[nH]c(-c3ccc(C)cc3)nc2c(N(CC)CC)n1` [Compound A13]: the “% Inh” value was determined as 98%. Consider `CCOC(=O)Nc1cc2[nH]c(-c3ccc([N+](=O)[O-])cc3)nc2c(N(CCc2ccccc2)Cc2ccccc2)n1` [Compound A14], for which the “% Inh” value is given as 98%. Take `CCOC(=O)Nc1cc2[nH]c(-c3ccc(Oc4ccccc4)cc3)nc2c(N(CCc2ccccc2)Cc2ccccc2)n1` [Compound A15]: the “% Inh” value is recorded as 98%.

For the molecule `CCOC(=O)Nc1cc2[nH]c(-c3ccc(OC)cc3)nc2c(N(CCc2ccccc2)Cc2ccccc2)n1` [Compound A16], the “% Inh” value is 98%.

On to `CCOC(=O)Nc1cc2[nH]c(-c3ccc(CC)cc3)nc2c(N(CCc2ccccc2)Cc2ccccc2)n1` [Compound A17], for which the “% Inh” value came to 98%. Still for that read-out and setting: for `CCOC(=O)Nc1cc2[nH]c(-c3cccc4ccccc34)nc2c(N(CCc2ccccc2)Cc2ccccc2)n1` [Compound A18] the value was 98%.

With `CCOC(=O)Nc1cc2[nH]c(CCc3ccccc3)nc2c(N(CCc2ccccc2)Cc2ccccc2)n1` [Compound A19], the “% Inh” value was determined as 98%. On to `CCOC(=O)Nc1cc2[nH]c(-c3ccccc3F)nc2c(N(CCc2ccccc2)Cc2ccccc2)n1` [Compound A20], for which the “% Inh” value is 98%. Consider `CCOC(=O)Nc1cc2nc(-c3ccc(Cl)cc3)[nH]c2c(N(CCc2ccccc2)Cc2ccccc2)n1` [Compound A27], for which the “% Inh” value is 97%.

Take `CCOC(=O)Nc1cc2[nH]c(-c3cc(OC)c(OC)c(OC)c3)nc2c(N(CCc2ccccc2)Cc2ccccc2)n1` [Compound A28]: the “% Inh” value was found to be 97%. Still for that read-out and setting: as for `CCOC(=O)Nc1cc2[nH]c(-c3cc(OC)c(OC)cc3OC)nc2c(N(CCc2ccccc2)Cc2ccccc2)n1` [Compound A29], the figure is 97%; as for `COc1ccc(OC)c(-c2nc3c(N(CCc4ccccc4)Cc4ccccc4)nc(NC(=O)O)cc3[nH]2)c1` [Compound A30], 97%; as for `CCOC(=O)Nc1cc2[nH]c(-c3ccccc3)nc2c(N(CCc2ccccc2)Cc2ccccc2)n1` [Compound A31], 97%.

Consider `CCOC(=O)Nc1cc2[nH]c(-c3ccc(C(F)(F)F)cc3)nc2c(N(CCc2ccccc2)Cc2ccccc2)n1` [Compound A32], for which the “% Inh” value was found to be 97%. For `CCOC(=O)Nc1cc(OCC)c2nc(-c3ccccc3)c(-c3ccccc3)nc2n1` [Compound A38], the “% Inh” value was 95%. For `CCOC(=O)Nc1cc2c(c(N)n1)N=C(CN(C)c1ccccc1)CN2` [Compound A45], the “% Inh” value is 93%.

`CCOC(=O)Nc1cc(N/N=C/c2ccccc2)c2nc[nH]c2n1` [Compound A48]: the “% Inh” value was 92%. For the molecule `CCOC(=O)Nc1cc2nc(-c3ccccc3)c(-c3ccccc3)nc2c(N)n1` [Compound A49], the “% Inh” value came to 92%.

`CCOC(=O)Nc1cc(N/N=C/c2ccccc2)c(N)c(N)n1` [Compound A54]: the “% Inh” value is recorded as 91%. Same read-out and setting: as for `CCOC(=O)Nc1cc(N/N=C/c2ccccc2)c2nc(SCc3ccccc3)[nH]c2n1` [Compound A57], the figure is 89%. For the molecule `CCOC(=O)Nc1cc(NC/C(=N/O)c2ccc(Cl)cc2Cl)c([N+](=O)[O-])c(N)n1` [Compound A58], the “% Inh” value is 89%. As for `CCOC(=O)Nc1cc(Nc2ccccc2)c([N+](=O)[O-])c(N)n1` [Compound A59], the “% Inh” value is given as 88%. For `CCOC(=O)Nc1cc2c(c(N)n1)N=C(c1ccc(F)cc1)CN2` [Compound A60], the “% Inh” value is reported as 87%.

With `CCOC(=O)Nc1cc(NC(c2ccccc2)c2ccccc2)c2ncc(O)nc2n1` [Compound A61], the “% Inh” value is on record as 87%. For `CCOC(=O)Nc1cc(NCC(O)CN(C)c2ccc(C)cc2)c([N+](=O)[O-])c(N)n1.Cl` (stereo not drawn) [Compound A62], the “% Inh” value amounted to 86%. As to `CCOC(=O)Nc1cc(NCC(O)CN(C)c2ccccc2)c2nc(O)[nH]c2n1` (stereo not drawn) [Compound A63], the “% Inh” value worked out at 86%. For the molecule `CCOC(=O)Nc1cc(Nc2ccccc2)c2nc[nH]c2n1.Cl` [Compound A64], the “% Inh” value was determined as 84%. As for `CCOC(=O)Nc1cc2c(c(N)n1)N=C(c1ccccc1)CN2` [Compound A65], the “% Inh” value came to 83%. For the molecule `CCOC(=O)Nc1cc(NCc2ccccc2)c([N+](=O)[O-])c(N)n1` [Compound A66], the “% Inh” value worked out at 83%. As to `CCCCC(Nc1cc(NC(=O)OCC)nc(N)c1[N+](=O)[O-])C(C)=O` (stereo not drawn) [Compound A67], the “% Inh” value stood at 81%. For the molecule `CCOC(=O)Nc1cc2c(c(N)n1)N=C(c1cccc(OC)c1)CS2` [Compound A68], the “% Inh” value is on record as 79%. As for `CCOC(=O)Nc1cc2[nH]c(C)nc2c(N(CCc2ccccc2)Cc2ccccc2)n1` [Compound A69], the “% Inh” value worked out at 71%. With `CCOC(=O)Nc1cc(NC(c2ccccc2)c2ccccc2)c2[nH]c(=O)cnc2n1` [Compound A70], the “% Inh” value is given as 76%. As for `CCOC(=O)Nc1cc(N/N=C/c2ccccc2)c2[nH]c(=S)[nH]c2n1` [Compound A71], the “% Inh” value stood at 75%. For the molecule `CCOC(=O)Nc1cc2nc(-c3ccccc3)c(-c3ccccc3)nc2c(OCC)n1` [Compound A72], the “% Inh” value worked out at 75%. On the same count and under the same terms, for `CCOC(=O)Nc1cc(NCCc2ccccc2)c2nc[nH]c2n1` [Compound A73] the value was 74%; for `CCOC(=O)Nc1cc2c(c(N)n1)N=C(Cc1ccccc1)[C@H](C)N2` [Compound A74], 72%; for `Br.CCOC(=O)Nc1cc(N)c([N+](=O)[O-])c(NCC(C)=O)n1` [Compound A75], 72%. The same measure, in the same setting: for `CCOC(=O)Nc1cc(N)c([N+](=O)[O-])c(Cl)n1` [Compound A76] the value was 72%. Consider `CCOC(=O)Nc1cc2c(c(N)n1)N=C(c1ccccc1)CS2` [Compound A77], for which the “% Inh” value was 71%. For the molecule `CCOC(=O)Nc1cc2ncc(CN(C)c3ccccc3)nc2c(N)n1` [Compound A78], the “% Inh” value stood at 71%. In the case of `CCOC(=O)Nc1cc2c(c(N)n1)N=C(CN(C)c1ccccc1)CN2` [Compound A80], the “% Inh” value amounted to 70%. With `CCOC(=O)Nc1cc(N)c2ncn(/N=C/c3ccccc3)c2n1` [Compound A81], the “% Inh” value is 69%. As for `CCOC(=O)Nc1cc(NCCc2ccccc2)c([N+](=O)[O-])c(N)n1` [Compound A82], the “% Inh” value was found to be 68%. The same measure, in the same setting: as for `CCOC(=O)Nc1cc(SC(=N)N)c([N+](=O)[O-])c(N)n1` [Compound A84], the figure is 66%.

Take `CCOC(=O)Nc1cc2c(c(N)n1)N=C1c3ccccc3CCC1O2.Cl.Cl` (stereo not drawn) [Compound A85]: the “% Inh” value came out at 65%. For `CCOC(=O)Nc1cc(NCCCCc2ccccc2)c2nc[nH]c2n1` [Compound A86], the “% Inh” value amounted to 65%. As for `CCCCC1Nc2cc(NC(=O)OCC)nc(N)c2N=C1C` (stereo not drawn) [Compound A87], the “% Inh” value stood at 64%. As for `CCOC(=O)Nc1cc2c(c(N)n1)N=C(c1ccc(C)c(C)c1)CN2` [Compound A88], the “% Inh” value stood at 64%. On to `CCOC(=O)Nc1cc2c(nc(-c3ccccc3)n2C(c2ccccc2)c2ccccc2)c(Cl)n1` [Compound A89], for which the “% Inh” value was 63%. As to `CCOC(=O)Nc1cc(NCCCCc2ccccc2)c([N+](=O)[O-])c(N)n1` [Compound A90], the “% Inh” value is given as 62%.

As for `CCOC(=O)Nc1cc2c(nc(SCc3ccc4c(c3)OCO4)n2N)c(N)n1` [Compound A91], the “% Inh” value is listed as 61%. `CCOC(=O)Nc1cc(Nc2ccc(Cl)cc2)c(N)c(N)n1` [Compound A92]: the “% Inh” value turned out to be 61%.

As to `CCOC(=O)Nc1cc(Cl)c([N+](=O)[O-])c(NC(=O)OCC)n1` [Compound A94], the “% Inh” value came out at 59%. As for `CCOC(=O)Nc1cc(NCCc2ccccc2)c(N)c(N)n1.Cl.Cl` [Compound A95], the “% Inh” value amounted to 59%. Consider `CCOC(=O)Nc1cc2c(c(N)n1)N=C(c1ccc3ccccc3c1)CS2` [Compound A97], for which the “% Inh” value is 58%. The same measure, in the same setting: as for `CCOC(=O)Nc1cc(NC(C)[C@H](O)c2ccccc2)c(N)c(N)n1` (stereo partly drawn) [Compound A99], the figure is 56%; as for `CCOC(=O)Nc1cc(NCC(O)CN(C)c2ccccc2)c([N+](=O)[O-])c(N)n1` (stereo not drawn) [Compound A101], 54%; as for `CCOC(=O)Nc1cc(NC(C)CCCN(CC)CC)c2ncc(-c3ccc(C(F)(F)F)cc3)nc2n1` (stereo not drawn) [Compound A102], 54%.

As for `CCOC(=O)Nc1cc(N)c2ncn(-c3ccccc3)c2n1` [Compound A103], the “% Inh” value is reported as 53%. Turning to `CCOC(=O)Nc1cc(NC(C)C(O)Cc2ccccc2)c([N+](=O)[O-])c(N)n1` (stereo not drawn) [Compound A104], the “% Inh” value was found to be 51%. On to `CCOC(=O)Nc1cc2c(cn1)N=C(c1ccccc1)[C@H](C)N2` [Compound A105], for which the “% Inh” value was found to be 49%. For `CCOC(=O)Nc1cc(Cl)c([N+](=O)[O-])c(N)n1` [Compound A106], the “% Inh” value came out at 49%.

The test is the same for the next values; noted with them: Mycobacterium tuberculosis; M. tuberculosis H37Rv; at 12.5% μg/ml (so in the source); read-out: Primary Screen PI (% inhibition of growth).
For orientation: inhibition of growth means how much of the control response was suppressed. Consider `CCOC(=O)Nc1cc2nc(-c3ccccc3)c(-c3ccccc3)nc2c(N)n1` [Compound 3302-89F, (5-Amino-2,3-diphenyl-pyrido[3,4-b]pyrazin-7-yl)-carbamic acid ethyl ester], for which the inhibition of growth at 12.5 µg/mL was found to be 92%. On the same count and under the same terms, for `CCOC(=O)Nc1cc2nc(-c3ccccc3)c(-c3ccccc3)nc2c(OCC)n1` [Compound 3491-23, (5-Ethoxy-2,3-diphenyl-pyrido[3,4-b]pyrazin-7-yl)-carbamic acid ethyl ester] the value was 95%.

Still in this test, the particulars now being: in words.
With `CCOC(=O)Nc1cc2nc(-c3ccccc3)c(-c3ccccc3)nc2c(N)n1` [Compound 3302-89F, (5-Amino-2,3-diphenyl-pyrido[3,4-b]pyrazin-7-yl)-carbamic acid ethyl ester], the “activity against M. tuberculosis H37Rv in the primary screen” value is “demonstrated activity”.

Turning to `CCOC(=O)Nc1cc2nc(-c3ccccc3)c(-c3ccccc3)nc2c(OCC)n1` [Compound 3491-23, (5-Ethoxy-2,3-diphenyl-pyrido[3,4-b]pyrazin-7-yl)-carbamic acid ethyl ester], the “activity against M. tuberculosis H37Rv in the primary screen” value is “demonstrated activity”.
